The values that follow come from patent US7683061B2, “Triazine dimers for the treatment of autoimmune diseases” (ProMetic BioSciences Inc., priority 2003, dated 2010).

Data set [1] deals with peripheral blood mononuclear leukocytes (PBML). The data set is described as follows: PBML DNA synthesis (thymidine). As to conditions: for IC50: Homo sapiens, Leukocyte; for effect on DNA synthesis (in words): resting and stimulated (ConA and PWM) PBML. In kind it is cell-based, human. An excerpt:
(§1) PBML were obtained from the peripheral blood of healthy volunteers. Blood was submitted to gradient centrifugation with Lympholyte-poly (Cedarlane, Hornby, Canada). The layer, which contains the mononuclear leukocytes, was collected and the cells washed three times in PBS. Cells were then suspended in RPMI (Gibco, Burlington, Canada) supplemented with […] (cyclone, Logan USA). Viability was greater than 99% as determined by trypan blue exclusion.
(§2) PBML were resuspended at 2×10^6 cells mL. 100 μL of PBML (2×10^5 cells) were incubated in a 96-well microtiter plate for 48 h in the presence or absence of compound or protein A. Cells were quiescent or stimulated with concanavalin A (ConA; T-cells) or pokeweed mitogen (PWM; B-cells). After incubation, cells were treated with MTT (cytotoxicity) or pulsed with 1 μCi of [^3]-thymidine (DNA synthesis), [^3H]-uridine (RNA synthesis) or [^3]-leucine (protein synthesis) for 6 h. Plates were harvested on a Tomteck and counted on a Microbeta β-counter.

Data set [2] has as its target TNFα / p55 TNFα receptor (CD120a) (Homo sapiens, UniProt P01375). The data set is described as follows: Binding ELISA: sTNF-R1 binding to plastic coated TNF-α. The procedure: (§3) Compounds were tested for their ability to bind to TNFα or inhibit the interaction of TNFα with its respective receptors; p55 and p75 TNFα receptor. Three binding ELISA assays were undertaken as described by Mancini et al. Biochemical Pharmacology 58, 851-859 (1999). TNFα or receptor (1 μg/mL) was coated on a 96-well plate Maxisorp, overnight at 4° C. After incubation, unbound TNFα or p55 TNFα receptor or p75 TNFα receptor was removed and the plate washed three times with PBS. The plate was then incubated with 100 μL/well of a 2% BSA solution for 1 h at 37° C. to block non specific protein binding. After incubation, the plate was washed three times with PBS. Biotinylated recombinant human TNFα p55 or p75 receptor or biotinylated recombinant human TNFα was added to the wells in the presence or absence of compounds. The plate was incubated for 1 h at 37° C. After incubation, the plate was washed three times with PBS to remove unbound labeled p55 or p75 receptor or recombinant human TNFα. 100 μL of avidin-HRP (diluted 1/2000 in PBS-0.1% BSA) was added to each well and incubated 1 h at 37° C. Bound p55 or p75 receptor or recombinant human TNFα was detected by the addition of 200 μL of 3,3′,5,5′-tetramethylbenzidine (TMB) per well for 15 min. The plate was then read at 655 nm on a EL 800 universal Microplate reader (Bio-Tek, Mississauga, Canada). Data was analyzed in Microsoft Excel and recorded as the percentage of inhibition of p55 or p75 binding to TNFα or TNFα binding to RI (p55) or RII (p75).
Background: In an ELISA, binding on a coated surface is turned into a signal by an enzyme label.

Data set [3] deals with T1, TNFα / p75 TNFα receptor (CD120b) (Homo sapiens, UniProt P01375). The data set is described as follows: Binding ELISA: sTNF-R2 binding to plastic coated TNF-α. The procedure: as §3
The nature of another data set: PBML cytotoxicity (MTT). Format: cell-based. To be noted: human.
Excerpt: as §1, §2

Data set [4] concerns peripheral blood mononuclear leukocytes (PBML). The data set is described as follows: PBML protein synthesis (leucine). Format: cell-based, human. To be noted: for IC50: Homo sapiens, Leukocyte; for effect on protein synthesis (in words): resting and stimulated PBML.
Excerpt: as §1, §2

The test system of data set [5] is female Lewis rats, collagen-induced arthritis. The data set is described as follows: Collagen-induced arthritis (CIA). As to conditions: intravenous; from day 16 to day 21. Format: in vivo. Here is the method:
Collagen-induced arthritis (CIA) was induced in female Lewis rats by intradermal administration of heterologous (bovine) type II collagen (250 μg) solubilized in 0.1 M acetic acid and emulsified in Complete Freund's Adjuvant (CFA). Rats were treated with the vehicle or methotrexate or compound 1 by intravenous injections at day 8, 9, 12, 14 and 16. Synovitis typically develops 12-15 days postimmunization in 80-90% of the animals. Once arthritis appears, each paw was examined two to three times a week. Both the incidence and severity of the arthritis was evaluated. Incidence is defined as the number of rats with clinical evidence of joint inflammation during the study period while severity was quantified by scoring daily each paw integer on a scale of 0 to 4 (0=normal, 4=maximum; Table 7) based on increasing levels of swelling, periarticular erythema and stiffness. The sum of the scores for all four paws was calculated as the arthritic index with a maximum possible score of 16 per rat. Since CIA primarily affects hind limbs, scores of 6-8 represent severe arthritis.

Data set [6] deals with T1, TNFα / p75 TNFα receptor (CD120b). Kind of data set: Binding ELISA: TNF-α binding to plastic coated TNF-R2. As to conditions: for inhibition at 100 µM: 10^−4 M; for inhibition at 10 µM: 10^−5 M. Here is the method:
as §3

Data set [7] has as its system mice, oxazolone-induced DTH. Kind of data set: Oxazolone-induced delayed-type hypersensitivity (DTH). Format: in vivo. As to conditions: for inflammation as seen by ear thickness: administered orally at day 0, 1 and 2, FIG. 8. Here is the method: Compounds were tested for their ability to treat oxazolone-induced delayed-type hypersensitivity (DTH) in mice. On day 0, mice were sensitized with 100 μL of oxazolone in 5% acetone. On day 0, 1 and 2, mice were treated by intravenous or oral administrations of the vehicle (control) or methotrexate (MTX, positive control/IV) or hydrocortisone (positive control/PO) or the compound at 50 mg/kg to 300 mg/kg of body weight. Mice were challenged with an application of 50 μL of oxazolone on the surface of the right ear (first challenge, day 3; second challenge, day 10). Ear thickness was measured on day 4 to day 7, and on day 11 to 14. Redness and crust formation was also observed. Mice were sacrificed on day 14. TDTH (CD4) cells play an important role in regulating the intensity of the DTH response. Compounds may exert an inhibitory influence on the DTH response through its inhibition of T-cell activation and DNA, RNA and or protein synthesis.

T1 sequence (P01375 77-233 limits assumed): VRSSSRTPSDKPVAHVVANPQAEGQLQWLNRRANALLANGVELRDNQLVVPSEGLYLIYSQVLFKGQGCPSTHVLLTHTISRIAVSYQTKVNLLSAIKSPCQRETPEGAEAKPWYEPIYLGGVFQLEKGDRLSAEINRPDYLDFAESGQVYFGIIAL
TNFα / p55 TNFα receptor (CD120a), sequence (P01375 77-233 limits assumed): as above

A word on the IC50: it is the concentration that gives 50% inhibition. Read a high IC50 as a need for much substance. What is called inhibition is the share of the control response that was lost under treatment. As to `Oc1ccc(CCNc2nc(NCCNc3nc(NCCc4ccc(O)cc4)nc(Nc4ccccc4)n3)nc(Nc3ccccc3)n2)cc1` [Compound 1], the IC50 in data set [1] (ConA stimulated PBML) worked out at 1.42 µM; in data set [1] (PWM stimulated PBML), 0.77 µM; in data set [1] (Resting PBML), 2.49 µM; in data set [4] (ConA stimulated PBML), 2.44 µM; in data set [4] (PWM stimulated PBML), 2.96 µM; in data set [4] (Resting PBML), 6.48 µM. Besides, the “effect on DNA synthesis (in words)” value in data set [1] is on record as “suppress”. Moreover, the inhibition at 100 µM in data set [2] (10^−4 M) came to 2.7%; in data set [3] (10^−4 M), 0%; in data set [6], 63.3%. Besides, the inhibition at 10 µM in data set [2] (10^−5 M) was found to be 0%; in data set [3] (10^−5 M) it was 0%; in data set [6] it was 38.4%. Also, the IC50 at 48 h is 8.7 µM in “PBML cytotoxicity (MTT)” (ConA stimulated PBML), over 10 µM in “PBML cytotoxicity (MTT)” (PWM stimulated PBML) and over 10 µM in the data set “PBML cytotoxicity (MTT)” (Resting PBML). Further, the “effect on protein synthesis (in words)” value in data set [4] is “inhibit”. In addition, in data set [5], the “reduction of the arthritic index” value came to 20%. Further, the “inflammation as seen by ear thickness” value in data set [7] is on record as “significant reduction of the inflammation”.
As to `Nc1ccc(CCNc2nc(Nc3ccc(CCNc4nc(NCCO)nc(Nc5cccc(N)c5)n4)cc3)nc(Nc3cccc(N)c3)n2)cc1` [Compound 19a], the IC50 was determined as 1.57 µM in data set [1] (ConA stimulated PBML); 4.38 µM in data set [1] (PWM stimulated PBML); 1.9 µM in data set [1] (Resting PBML); 3.91 µM in data set [4] (ConA stimulated PBML); 4.88 µM in data set [4] (PWM stimulated PBML); 9.9 µM in data set [4] (Resting PBML). Moreover, in data set [1], the “effect on DNA synthesis (in words)” value is reported as “suppress”. The figures for the IC50 at 48 h in the data set “PBML cytotoxicity (MTT)” (ConA stimulated PBML), in “PBML cytotoxicity (MTT)” (PWM stimulated PBML) and in the data set “PBML cytotoxicity (MTT)” (Resting PBML) were 6.8 µM, over 10 µM and at least 10 µM, respectively. The “effect on protein synthesis (in words)” value in data set [4] is “inhibit”. In addition, in data set [6], 100 µM produced 27.4% inhibition. This molecule registered an inhibition at 10 µM in data set [6] of 24.3%. For the same molecule, the “potency compared to methotrexate” value in data set [7] (FIGS. 6 and 7) was “equipotent to methotrexate”. The “inflammation as seen by ear thickness” value in data set [7] is recorded as “significant reduction of the inflammation”.
